Experimental data: PubChem BioAssay (NCI)
“And” between values parts separate entries of the source, which are not always exact repeats. Identical values can stand only once.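 Five compound concentrations were applied to cells in 96-well plates for 48 hours; endpoints were derived by simple linear interpolation of the resulting dose-response curve. Abbreviation: GI50, concentration required for 50% inhibition of growth. TGI: concentration producing complete growth inhibition.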

Tests used:
Test in all cases: NCI-60 cell line screen, 48 h
[1] = system: OVCAR-8 ovarian
[2] = system: K-562 leukemia
[3] = system: MDA-MB-435
[4] = system: SK-OV-3 ovarian
[5] = system: UACC-62 melanoma
[6] = system: NCI/ADR-RES ovarian
[7] = system: SN12C renal
[8] = system: SNB-75 CNS
[9] = system: MDA-MB-231 breast
[10] = system: HCT-116 colon

Structure (SMILES) | TGI [1] | GI50 [2] [nM] | TGI [2] | GI50 [3] [nM] | TGI [3] | GI50 [4] [µM] | TGI [4] | GI50 [5] [nM] | GI50 [6] [µM] | TGI [6] | GI50 [7] [µM] | TGI [7] | TGI [8] | GI50 [9] [nM] | TGI [9] [µM] | GI50 [10] [nM] | TGI [10] | TGI [5] | GI50 [1] [nM] | GI50 [8] [nM]
CCC(C)(C)C(=O)O[C@H]1C[C@@H](C)C=C2C=C[C@H](C)[C@H](CC[C@@H]3C[C@@H](O)CC(=O)O3)[C@H]21 | 18.2 µM and 20.6 µM | 5530 | 22.8 µM and > 30 µM | 8030 | 21 µM | 7.56 | 21 µM and > 30 µM | 578 | 0.614 | 12.1 µM | 0.949 | 16.5 µM and > 30 µM | 5.37 µM and > 30 µM | 224 | 0.732 | 1250 | 5.43 µM and 6.98 µM |  |  | 
CC(=O)N1c2ccccc2C23CCN(C)CC4C(C)OCC(C4CC2=O)C13 (stereo not given) | > 100 µM |  | > 100 µM |  | > 100 µM |  | > 100 µM |  |  | > 100 µM |  | > 100 µM | > 100 µM |  | > 100 |  | > 100 µM | > 100 µM |  | 
O=[N+]([O-])c1ccc(Br)c([N+](=O)[O-])c1 | 6.05 µM | 1980 | > 23.5 µM | 1850 | 3.58 µM | 8.37 | 20.6 µM | 2560 | 2.39 | 5.69 µM | 2.37 | 5.68 µM | 4.36 µM | 2680 | 7.12 | 2090 | 5.02 µM | 6.87 µM | 2490 | 1690
COc1cc(C(=O)c2ccc3c(c2)OCO3)cc(OC)c1OC | > 100 µM | 482 | > 100 µM | 200 | 0.502 µM | 2.84 | 33.1 µM | 2620 | 0.987 | > 100 µM | 6.86 | > 100 µM | 5.03 µM | 8650 | > 100 | 2080 | > 100 µM | > 100 µM | 5550 | 1390
COC(=O)NC1C(C)OC(OC2C/C=C(/C)C3C=CC4C(OC5CC(OC6CC(O)C(OC7CC(O)C(OC)C(C)O7)C(C)O6)C(O)C(C)O5)C(C)CC(C)C4C3(C)/C(O)=C3\C(=O)OC4(CC(C)C(CO)=CC4/C=C\2C)C3=O)CC1(C)[N+](=O)[O-] (stereo not given) | 20.7 µM and 32.3 µM | 3640 | 14.7 µM and 71.8 µM |  | 17 µM | 10.3 | 50 µM and 20.9 µM | 9440 | > 50 | > 100 µM | 9.65 | 29.1 µM and 40 µM | 33.5 µM and 46.2 µM |  | 36 | 8040 | 14.8 µM and 23.4 µM | 16.7 µM and 18.4 µM |  | 11000
C1=Cc2ccccc2Nc2ccccc21 | > 100 µM | > 100000 | > 100 µM | > 100000 | > 100 µM | > 100 | > 100 µM | > 100000 | > 100 | > 100 µM | > 100 | > 100 µM | > 100 µM | > 100000 | > 100 | > 100000 | > 100 µM | > 100 µM | > 100000 | > 100000
CN(C)c1ccc(N2Cc3ccccc3OC3=C2C(=O)c2c(O)ccc(O)c2C3=O)cn1 | 1.26 µM | 177 | 1.58 µM | 237 | 0.544 µM | 3.05 | 11.6 µM | 211 | 0.284 |  | 0.261 | 1.03 µM | 6.93 µM | 234 | 0.745 | 124 | 0.288 µM | 0.638 µM | 268 | 769
CCOc1cccc(/C=N/NC(=O)c2ccc(Nc3ccnc(C(F)(F)F)c3)cc2)c1O | > 72.5 µM | 947 | > 31.6 µM | 6190 | > 100 µM | 2.01 | > 57.8 µM | 774 | 3.62 | > 63.2 µM | 2.45 | > 100 µM | > 67.5 µM | 1700 | > 100 | 367 | > 71.5 µM | > 61 µM | 599 | 3340
COc1ccc2c(c1)C(=O)/C(=C/c1cccc(OCC(=O)Nc3nc4c(s3)CCCC4)c1)O2 | 8.71 µM | 1000 | > 23 µM | 2590 | 9.42 µM | 11.8 | 25.1 µM | 5230 | 2.12 | 6.37 µM | 1.63 | 6.81 µM | 12 µM | 1180 | 5.38 | 1130 | 2.34 µM | 18.4 µM | 1300 | 1750
Cc1nn(-c2nc3ccccc3s2)c(C)c1Oc1ccccc1O | 25.8 µM | 1940 | 19.4 µM | 9360 | 21.3 µM | 7.57 | 24.8 µM | 2910 | 3.6 | 23.3 µM | 6.92 | 22 µM | 24.3 µM | 10800 | 25.9 | 2030 | 15.5 µM | 18.1 µM | 8040 | 1730
CC1=C[C@H]2c3c(c(O)c(O)c4oc5c(C)cccc5c(=O)c34)[C@H](c3cc(O)c(O)c4oc5c(C)cccc5c(=O)c34)[C@H]2C(C)(C)C1 | 17.4 µM | 1670 | > 100 µM | 1630 | 3.87 µM | 2.46 | 9.96 µM | 1600 | 2.44 | 7.15 µM | 1.69 | 6.7 µM | 6.77 µM | 2880 | 14.6 | 899 | 2.69 µM | 3.27 µM | 1700 | 1400
CCCCCCCCCCCCCC(=O)O[C@H]1CC[C@H](NC(=O)[C@H](OC)[C@H](O)[C@@H](O)[C@H](O)/C=C/C(C)C)C(=O)NC1 | 20.5 µM and 14.3 µM |  | 11.8 µM and 15.4 µM | 7.89 | 51.2 µM and 18.2 µM |  | 51.2 µM and > 100 µM |  | 3.58 | 51.2 µM and 26.3 µM |  | 10.8 µM and 18.6 µM | 38.8 µM | 6.38 | 13.5 |  | 1.06 µM | 0.0143 µM and 0.045 µM | 1.81 | 
N#C/C(=C\c1ccc(-c2ccc(Cl)cc2)o1)C(=O)Nc1ncc(Cc2ccc(Cl)cc2)s1 | 5.76 µM | 3920 | > 100 µM | 2650 | > 100 µM | 3.24 | 9.52 µM | 2110 | 1.87 | 6.31 µM | 1.28 | 3.32 µM | 3.89 µM | 1640 | 4.4 | 1410 | 3.51 µM | 6.57 µM | 1810 | 1380
O=C(Nc1ccccc1O)c1cccc(NC2=C(Cl)C(=O)N(Cc3ccccc3)C2=O)c1 | 4.7 µM | 2150 | 9.06 µM | 6030 | 17.7 µM | 12.8 | 31.5 µM | 2330 | 3.35 | 11.8 µM | 2.22 | 7.57 µM | 33.1 µM | 1890 | 7.53 | 2970 | 12.1 µM | 6.79 µM | 2060 | 13500
C[n+]1c(/C=C\c2ccc(Cl)cc2)ccc2ccccc21 | 91.1 µM | 8690 | > 100 µM | 21500 | 66.4 µM | 46.6 | > 100 µM | 17700 | > 100 | > 100 µM | 4.13 | 84 µM | > 100 µM | 38900 | > 100 | 12600 | > 100 µM | 52 µM | 6820 | 23200
CC1=NN(c2ccccc2)C(=O)C1N=Nc1ccc([As](=O)(O)O)c(O)c1 (stereo not given) | > 100 µM |  | > 100 µM |  | > 100 µM |  | > 100 µM |  |  | > 100 µM |  | > 100 µM | > 100 µM |  | > 100 |  | > 100 µM | > 100 µM |  | 
Oc1ccc(-c2nnc3sc(-c4ccc(F)c(Oc5ccccc5)c4)nn23)cc1 | > 100 µM | > 100000 | > 100 µM | 68600 | > 100 µM | 44.6 | > 100 µM | 19800 | 66.5 | > 100 µM | 37.6 | > 100 µM | 62.1 µM | 16400 | 47.4 | 23500 | > 100 µM | 66.8 µM | 28300 | 26400
COc1ccc2nc(-c3cc(-c4cc(OC)c(OC)c(OC)c4)n[nH]3)[nH]c2c1 | 3.2 µM | 2010 | > 100 µM | 1490 | 3.11 µM | 2.83 | 9.17 µM | 1120 | 2.91 | > 100 µM | 2.06 | 8.45 µM | 6.34 µM | 2870 | 12.9 | 1810 | 6.65 µM | 2.52 µM | 1150 | 2230
CCOc1c(Br)cc(C2C(C(=O)OC)=CN(C)C=C2C(=O)OC)cc1OC | > 100 µM | 50600 | > 100 µM | 37300 | > 100 µM | > 100 | > 100 µM | 50200 | 43.6 | > 100 µM | 78.6 | > 100 µM | > 100 µM | 32800 | > 100 | 48300 | > 100 µM | > 100 µM | 68100 | 26100
CC[C@H](C)[C@H]1NC(=O)[C@@H](N[C@](C)(O)[C@@H](N)CC(C)C)[C@@H](C)OC(=O)[C@H](Cc2ccc(OC)cc2)N(C)C(=O)[C@@H]2CCCN2C(=O)[C@H](CC(C)C)NC(=O)[C@@H](C)C(=O)[C@H](C(C)C)OC(=O)C[C@@H]1O | 0.355 µM | 15.6 | 1.8 µM | 15.1 | 0.397 µM | 0.0191 | 1.19 µM | 10.9 | 2.18 | 46.5 µM | 0.0115 | 0.316 µM | 0.436 µM | 26.3 | 0.233 | 6.08 | 50 µM | 0.16 µM | 16.1 | 21.5
COC(=O)Nc1nc2ccc(Oc3ccc(NC(=O)Nc4cccc(C(=O)O)c4)cc3)cc2[nH]1 | > 25 µM | 6510 | > 25 µM | 1320 | 6.03 µM | 5.53 | 16.3 µM | 5350 | 6.13 | > 17.4 µM | 11.9 | > 25 µM | > 25 µM | 11500 | > 25 | 8820 | > 25 µM | > 25 µM | 9400 | 9980
Cn1cc(C2=C(c3cccc4ccccc34)C(=O)NC2=O)c2ccccc21 | 19 µM | 10300 | > 25 µM | 6060 | > 25 µM | 8.35 | > 25 µM | 8330 | 9.59 | > 25 µM | 6.58 | > 17.5 µM | > 25 µM | 8740 | > 25 | 5920 | > 16.7 µM | > 25 µM | 7170 | 3730
COc1cc(-c2nc(Nc3nc4ccccc4[nH]3)nc(N)c2C#N)cc(OC)c1OC | > 100 µM | 8450 | > 100 µM | 88.6 | 16.7 µM | 4.4 | 56.8 µM | 4650 | > 100 | > 100 µM | 29.1 | > 100 µM | 49.9 µM | 13100 | 92.4 | 4520 | 25.8 µM | > 59.7 µM | 28900 | 308
COc1ccc2c(c1)c(-c1ccc(-c3cn(S(=O)(=O)c4ccccc4)c4ccc(OC)cc34)s1)cn2S(=O)(=O)c1ccccc1 |  | > 100000 | > 100 µM | > 100000 | > 100 µM | > 100 | > 100 µM | > 100000 | > 100 | > 100 µM | > 100 | > 100 µM | > 100 µM | > 100000 | > 100 | > 100000 | > 100 µM | > 100 µM |  | > 100000
